The results in this text go back to patent US12486250B2, “Muscarinic receptor 4 antagonists and methods of use” (Neurocrine Biosciences, Inc., priority 2019, dated 2025).

The target in one test is T1, human M2 receptor (Homo sapiens, UniProt P08172).
T1 construct: expressed in transfected cells; host or cells: CHO cells
T1 sequence (P08172 1-466): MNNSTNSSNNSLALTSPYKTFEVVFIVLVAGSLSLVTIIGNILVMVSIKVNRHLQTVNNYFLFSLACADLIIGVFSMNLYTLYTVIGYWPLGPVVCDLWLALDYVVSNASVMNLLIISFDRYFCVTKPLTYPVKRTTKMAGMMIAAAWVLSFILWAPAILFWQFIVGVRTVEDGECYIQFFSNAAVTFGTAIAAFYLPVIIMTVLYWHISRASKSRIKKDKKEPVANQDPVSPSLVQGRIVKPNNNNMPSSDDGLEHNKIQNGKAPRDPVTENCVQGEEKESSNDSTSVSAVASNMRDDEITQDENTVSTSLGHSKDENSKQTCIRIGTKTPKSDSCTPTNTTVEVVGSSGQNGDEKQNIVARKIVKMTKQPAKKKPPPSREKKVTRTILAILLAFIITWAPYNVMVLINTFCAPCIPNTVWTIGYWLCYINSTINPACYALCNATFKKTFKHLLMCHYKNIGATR
Briefly: Radioligand ([3H]N-methylscopolamine) binding assay, CHO cell membranes. To be noted: 1.5 nM tritiated N-methylscopolamine, 90 minutes at 37° C.; read-out: Binding affinity (Ki) M2. Here is the method: (§1) Binding affinity (Ki) of compounds was measured by inhibition of radioligand binding to membranes from CHO cells expressing human M1, M2, M3, M4 and M5 receptors. Membranes were prepared by nitrogen cavitation and differential centrifugation as previously described (Hoare et al., Mol. Pharmacol. 2003 March; 63(3): 751-65). The radioligand employed was tritiated N-methylscopolamine, used at a concentration of 1.5 nM. A dose-response of twelve concentrations of compound was used, ranging from […]. The assay buffer was 50 mM HEPES, 100 mM NaCl, 5 mM MgCl2, 1 mM ethylenediaminetetraacetic acid, pH-adjusted to pH 7.4. Membranes, radioligand and compound were incubated together for 90 minutes at 37° C., in a total volume of 150 μL in a 96-well plate. Receptor-bound radioligand was then collected by harvesting the assay over glass fiber filters pretreated with polyethylenimine to trap the cell membranes, using rapid vacuum filtration. Harvesting and radioactivity counting was conducted as previously described (see, e.g., Hoare et al., Mol. Pharmacol. 2003 63(3):751-65); Erratum at Mol. Pharmacol. 2005 July; 68(1): 260).

The target of another test is T2, human M4 receptor (Homo sapiens, UniProt P08173).
T2 construct: expressed in transfected cells; host or cells: CHO cells
T2 sequence (P08173 1-479): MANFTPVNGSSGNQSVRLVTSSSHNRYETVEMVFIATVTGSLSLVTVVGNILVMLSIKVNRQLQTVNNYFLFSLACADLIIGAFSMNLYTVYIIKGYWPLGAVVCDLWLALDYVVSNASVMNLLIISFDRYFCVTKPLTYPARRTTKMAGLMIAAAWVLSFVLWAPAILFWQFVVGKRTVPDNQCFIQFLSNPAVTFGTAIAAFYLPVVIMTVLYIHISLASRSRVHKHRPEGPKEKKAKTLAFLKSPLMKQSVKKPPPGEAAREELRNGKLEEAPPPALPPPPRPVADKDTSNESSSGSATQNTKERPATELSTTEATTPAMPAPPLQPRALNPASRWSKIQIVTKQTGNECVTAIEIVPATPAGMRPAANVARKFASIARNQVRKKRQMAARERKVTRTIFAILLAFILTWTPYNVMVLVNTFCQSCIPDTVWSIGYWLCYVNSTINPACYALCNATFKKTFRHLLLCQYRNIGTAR
The description is as above. To be noted: 1.5 nM tritiated N-methylscopolamine, 90 minutes at 37° C.; read-out: Binding affinity (Ki) M4. As to the method: as §1

The structures appear in SMILES notation.

`C[C@@H]1CN(c2cnc(C(F)(F)F)cn2)C[C@H](C)N1C(=O)OCCC1CCN(Cc2ccccc2)CC1` [Compound 1, 2-(1-benzylpiperidin-4-yl)ethyl (2R,6S)-2,6-dimethyl-4-[5-(trifluoromethyl)pyrazin-2-yl]piperazine-1-carboxylate]: the Ki worked out at 1860 nM on human M2 receptor and 1.8 nM on human M4 receptor.
For `C[C@@H]1CN(c2cnc(C(F)(F)F)cn2)C[C@@H](C)N1C(=O)NCCC1CCN(Cc2ccccc2)CC1` [Compound 4A], in that order: 665 nM and 5 nM.
For `C[C@@H]1CN(c2ncc(C#N)cn2)C[C@H](C)N1C(=O)NCCC1CCN(Cc2ccccc2)CC1` [Compound 3A], in that order: 520 nM and 3 nM.
The like results for `C[C@@H]1CN(c2cnc(C(F)(F)F)cn2)C[C@@H](C)N1C(=O)OCCC1CCN(Cc2ccccc2)CC1` [Compound 2, 2-(1-benzylpiperidin-4-yl)ethyl (2R,6R)-2,6-dimethyl-4-[5-(trifluoromethyl)pyrazin-2-yl]piperazine-1-carboxylate] were, in that order, 271 nM and 4 nM.
